Data from PMC11775380, “Discovery of Novel Nav1.7-Selective Inhibitors with the 1H-Indole-3-Propionamide Scaffold for Effective Pain Relief” (Research, 2025).
Where two headings read alike, the source gives them in different places.

Key:
[1] = Pharmacokinetic study in mice (p.o. and i.v.), LC-MS/MS of plasma; type: in vivo, ICR mice; conditions: for MRT last: read-out: MRT(0-t); for MRT inf: read-out: MRT(0-∞)
Protocol: To evaluate the pharmaceutical properties of WN2-R, a preliminary pharmacokinetic study was conducted in mice to examine the in vivo pharmacokinetic profile following both oral (p.o.) and intravenous (i.v.) administrations, along with the determination of bioavailability (Table 2). Under p.o. conditions, WN2-R was rapidly absorbed, with drug detection occurring within 5 min. […] Similar to the p.o. study, the plasma concentration decreased gradually over time, approaching the quantitation limit at 6 to 8 h post-dosing (Fig. 7C).
The pharmacokinetic and bioavailability of WN2-R were examined in ICR mice following both p.o. and i.v. administrations. All animal experiment procedures were carried out in accordance with the animal experiment procedures promulgated by the State Science and Technology Commission of China and Animal Care and Use Committee of Institute of Materia Medica, Chinese Academy of Medical Sciences (registry no. 00008517). Male ICR mice (n = 12), weighing 20 ± 2 g, were obtained from Beijing Vital River Experimental Animal Co., Ltd. (Beijing, China). Before the experiment, the mice were kept under standard conditions, including a 12-h light/dark cycle, adequate ventilation, a temperature of 25 ± 2 °C, and 60% relative humidity. WN2-R, suspended in physiological saline, was orally administrated to mice at 10 mg/kg after an overnight fast. In addition, the mice were injected via caudal vein with WN2-R dissolved in 20% HP-β-CD at 1 mg/kg. Blood samples were collected from the retro-orbital venous plexus to ice-cooled EP tube containing 0.5% heparin sodium at 0.033 (i.v. only), 0.083, 0.25, 0.5, 1, 2, 4, 6, 8, 12, and 24 h after dosing. Plasma was obtained by centrifugation of blood at 8,000 rpm for 5 min. Subsequently, 20 μl of plasma sample was mixed with 140 μl of acetonitrile, vortexed for 30 s, and centrifuged twice at 14,000 rpm for 5 min. The resulting supernatant (2 μl) was analyzed by the liquid chromatography–tandem mass spectrometry (LC-MS/MS) method.
The LC-MS/MS system consisted of Thermo TSQ Access Max mass and Vanquish liquid chromatograph (Thermo Scientific, USA). Zorbax-SB C18 column (2.1 × 100 mm, 3.5 μm Agilent USA) was used in the analysis. The mobile phase consisted of water containing 0.1% formic acid (Phase A) and acetonitrile (Phase B) at a flow rate of 0.25 ml/min with an operation temperature of 35 °C. A gradient elution system was used as follows: 40% B at 0 to 1 min, 90% B at 1 to 4 min, 90% B down to 40% B at 4 to 5 min, and 40% B at 5 to 7 min. The automatic sampler was maintained at 15 °C throughout the analysis. For the mass spectrometry analysis, positive ion scanning in selected reaction monitor mode was applied to monitor the transition of m/z 458.2 to 191.9 for the determination of WN2-R. Besides, other instrument parameters, including ion spray voltage, capillary temperature, sheath gas, auxiliary gas, and collision energy, were optimized to enhance the analysis of WN2-R.
EXCEL and PRISM8.0 were used for data and chart preparation. The Winnolin professional software was employed for the pharmacokinetic parameter calculation. Bioavailability was calculated using the following formula: F (%) = (Di.v. × AUCp.o.)/(Dp.o. × AUCi.v.) × 100%.

[2] = system: small (<30 μm) DRG neurons; assay: Current-clamp recording of action potential firing (membrane excitability); type: cell-based, mouse; conditions: 10 μM
Protocol: To investigate the mechanism of action of WN2-R and facilitate animal model experiments, we used voltage-clamp recording to test the effects of WN2-R on the native Na^+-, K^+-, and Ca^2+-mediated currents in DRG neurons. […] Furthermore, the effects of WN2-R on membrane excitability were examined in small (<30 μm) DRG neurons from mice using current-clamp recordings.
DRG isolation and culture were performed according to our previous report. Briefly, C57BL/6 mice (weight 18 to 20 g, 6 to 8 weeks) were euthanized via cervical dislocation under anesthesia. Lumbar DRGs were isolated from the L4 to L5 segments of the lumbar spinal cord. The DRG neurons were subsequently dissociated through enzymatic digestion with collagenase (0.32 mg/ml) and trypsin (0.15 mg/ml) at 37 °C for 30 min, with intermittent shaking. After centrifugation at 800 rpm for 5 min at room temperature, the cells were seeded onto poly-L-lysine-coated coverslips and cultured in DMEM (Gibco) supplemented with 10% fetal bovine serum (Gibco). […]
For recording Nav currents of DRG neurons, the bath solution contains (in mM) 30 NaCl, 1 MgCl2, 1.8 CaCl2, 5 CsCl, 5 KCl, 25 D-glucose, 5 HEPES, 0.1 CdCl2, and TEA-Cl (pH 7.4 with NaOH), and the pipette solution contains (in mM) 135 CsCl, 10 NaCl, and 5 HEPES (pH 7.4 with CsOH). The Nav current program is recorded following the above method. […]

[3] = male, ICR, mouse, plasma, iv, i.v. (1 mg/kg)
[4] = male, ICR, mouse, plasma, po, p.o. (10 mg/kg)

## Cc1ccc(Cn2cc([C@H](CC(=O)NCCN(C)C)c3ccc(F)cc3)c3ccccc32)cc1 [WN2-R]
[1]; i.v. (1 mg/kg)
  Time at which Cmax was detected: 2 min
  V: 23,580.98 ± 2,679.45 ml/kg
[1]; male, ICR, mouse, iv, i.v. (1 mg/kg), plasma
  Cmax: 269 ± 11.9 ng/mL
[1]; [3]
  AUC(0-inf): 271 ± 30.8 ng·h/mL
  AUC(0-t): 267 ± 29.7 ng·h/mL
  Tmax: 0.033 h
  clearance: 62 mL/min/kg
  half-life: 4.47 ± 0.96 h
  MRT last: 3.21 ± 0.28 h
  MRT inf: 3.56 ± 0.44 h
[1]; male, ICR, mouse, plasma, oral, p.o. 10 mg/kg vs i.v. 1 mg/kg, from AUC(0-t), read-out: F (bioavailability)
  bioavailability: 20.3%
[1]; [4]
  AUC(0-inf): 546 ± 98.1 ng·h/mL
  AUC(0-t): 542 ± 98.5 ng·h/mL
  Tmax: 0.25 h
  half-life: 3.46 ± 0.5 h
  MRT last: 5.66 ± 0.33 h
  MRT inf: 5.87 ± 0.4 h
[1]; male, ICR, mouse, po, p.o. (10 mg/kg), plasma
  Cmax: 139 ± 25.4 ng/mL
[2]
  Action potential (AP) firing in response to depolarizing currents: markedly reduced
